Test results published in patent EP1311486B1, “USES OF THALIPORPHINE OR ITS DERIVATIVES IN TREATMENT OF CARDIAC DISEASES AND PREPARATION OF SAME” (Lotus Pharmaceutical Co., Ltd., priority 2000, dated 2002).

Assays:
[1] = system: rats subjected to 4 hours coronary ligation; test: Area at risk and infarct size after 4 hours coronary ligation (triphenyl tetrazolium chloride-Evan's blue staining); assay type: in vivo, rat; conditions: L-NAME 1x10^-3 g/kg
Method: Infarct size was determined by the triphenyl tetrazolium chloride-Evan's blue staining technique. The rat was sacrificed after its left descending coronary artery had been occluded for 4 hours. The weight of infarct tissue was expressed as a percentage of total ventricular weight or occluded zone. The difference in infarct size was statistically analyzed using unpaired Student's t-test. Table 4 Area at risk and infarct size in vehicle and THP-treated rats subjected to 4 hours coronary ligation
The difference in ischemic area and infarct size shown by staining technique after 4 hours of ischemia is evaluated. […] In the vehicle group, the necrotic area expresses either as a percentage of the area at risk (45.2±1.0%) or as a percentage of the total ventricle (19.8±2.2%), indicating the amount of cardiac tissue at risk becomes necrotic. Administration of THP reduces myocardial necrosis extension in a dose dependent manner. This reduction is observed either in the necrotic area/area at risk (38.1±5.0%, 29.0±2.5% and 10.7±1.8%/with 3.5x10^-7, 10^-6, 10^-5 g/kg of THP, respectively) or in the necrotic area/total ventricle (17.9+2.3%, 13.4±1.2% and 5.0±0.9% with 3.5x10^-7, 10^-6, 10^-5 g/kg of THP, respectively).

[2] = system: AV node conduction; test: His bundle electrogram of isolated heart, Langendorff perfusion, atrial pacing at 300 ms cycle length; design: species or system rats and guinea pigs; conditions: for atrial effective refractory period (AERP): before drug THP 60 ms, quinidine 40 ms; for ventricular effective refractory period (VERP): before drug THP 160 ms, quinidine 180 ms; for AV node effective refractory period (AVNERP): before drug THP 170 ms, quinidine 130 ms; for wenckbach cycle length (WCL): before drug THP 200 ms, quinidine 150 ms
Method: The investigation conforms to the Guide for the Care and Use of Laboratory Animals published by the US National Institutes of Health (NIH publication No. 85-23, revised 1996). Adult rats and guinea pigs were killed after hepariniation and anesthetization with urethane (1.25 g/kg i.p.). After isolating the heart, the aorta was perfused with 10µM quinidine and THP, respectively, by Langendorff perfusion. A pair of bipolar electrodes connected with silver wire were placed on the tip of the Triangle of Koch to record the His bundle electrogram. In addition, another pair of bipolar electrodes connected with silver wire were placed on the surface of the right ventricle to record T wave. […] The QT interval, conduction time through the sinoatrial (SA interval), the atrioventricular node (AH interval) and His-purkinje system (HV interval) were recorded, respectively, using electrocardiograph. Similarly, the recovery curve of His-purkinje system (i.e. the relationship of H2V2 and V1H2), atrial and ventricular refractory period and AV node refractory period were also recorded in the same manner. 1 and 2.
The SA, AH, HV intervals and T wave are prolonged in the quinidine-treated heart (FIG. 1). […] In addition, 3, 10 and 30µM THP can prolong the atrial effective refractory period (AERP) from 60 ms to 90, 100 and 120 ms, respectively; the ventricular effective refractory period (VERP) from 160 ms to 160, 170 and 190 ms, respectively; and the AV node effective refractory period (AVNERP) from 170 ms to 170, 200 and 240 ms, respectively. When compared with THP in the same manner, 3,10 and 30µM quinidine can prolong the AERP from 40 ms to 60, 80 and 130 ms; the VERP from 180 ms to 170, 180 and 190 ms; and the AVNERP from 130 ms to 150, 200 and 245 ms, respectively. Further, 3, 10 and 30µM THP can change the wenckbach cycle length (WCL) from 200 ms to 210, 230 and 280 ms, respectively; whereas 3, 10 and 30µM quinidine can change the WCL from 150 ms to 170, 210 and 300 ms, respectively. Both THP and quinidine prolong AERP, VERP and AVNERP, however, only quinidine inhibits conduction in AV node (prolonged AH interval). In contrast, even when the THP concentration raised to 10µM, the conduction in AV node is not inhibited.

[3] = system: guinea pig right ventricular strips; test: Ouabain-induced arrhythmia in electrically driven right ventricular strips; conditions: 10-20µM after 0.6-0.8µM ouabain
Method: The arrhythmia was then induced 5-10 minutes after. 10-20µM THP or its derivatives were administered to reverse the ouabain-induced arrhythmia. 6-7.
Referring to FIGs. […] The arrhythmia is then induced 5-10 minutes after.

Structure (SMILES) | Area at risk (% of ventricle) [1] | Necrotic (% of Area at risk) [1] | Necrotic (% of ventricle) [1] | atrial effective refractory period (AERP) ([2]; 3µM) | ventricular effective refractory period (VERP) ([2]; 3µM) | AV node effective refractory period (AVNERP) ([2]; 3µM) | wenckbach cycle length (WCL) ([2]; 3µM) | AH interval (conduction in AV node) ([2]; 10µM, isolated perfused heart) | HV interval ([2]; 10µM, isolated perfused heart) | SA interval ([2]; 10µM, isolated perfused heart) | T wave ([2]; 10µM, isolated perfused heart) | atrial effective refractory period (AERP) ([2]; 10µM) | ventricular effective refractory period (VERP) ([2]; 10µM) | AV node effective refractory period (AVNERP) ([2]; 10µM) | wenckbach cycle length (WCL) ([2]; 10µM) | atrial effective refractory period (AERP) ([2]; 30µM) | ventricular effective refractory period (VERP) ([2]; 30µM) | AV node effective refractory period (AVNERP) ([2]; 30µM) | wenckbach cycle length (WCL) ([2]; 30µM) | reversal of ouabain-induced arrhythmia [3]
COC(=O)[C@@H](N)CCCNC(=N)N[N+](=O)[O-] [L-NAME, N^∞-nitro-L-arginine methyl ester, reference compound] | 47.5±0.2 % of ventricle | 45.1±7.2 % of Area at risk | 21.4±3.5 % of ventricle |  |  |  |  |  |  |  |  |  |  |  |  |  |  |  |  | 
C=C[C@H]1C[N@@]2CC[C@H]1C[C@@H]2[C@@H](O)c1ccnc2ccc(OC)cc12 [quinidine] |  |  |  | 60 ms | 170 ms | 150 ms | 170 ms | prolonged | prolonged | prolonged | prolonged | 80 ms | 180 ms | 200 ms | 210 ms | 130 ms | 190 ms | 245 ms | 300 ms | does not reveal the efficacy
